Data reported in article PMC6717395 (Drug Design, Development and Therapy, 2019).

Columns and labels:
DPPH antioxidant assay = details: for DPPH % inhibition (mean ± S.E.M): n=3; for DPPH IC50: DPPH radical scavenging
[1] = molecular target: acetylcholinesterase (AChE) (Homo sapiens, UniProt P22303); test: biochemical
[2] = molecular target: butyrylcholinesterase (BChE) (Homo sapiens, UniProt P06276); test: Anticholinesterase assay; format: biochemical
ABTS antioxidant assay = details: for ABTS percent inhibition (mean ± S.E.M): n=3; for ABTS IC50: ABTS radical scavenging
[3] = read-out: Percent BChE (mean ± SEM) inhibition

butyrylcholinesterase (BChE), sequence (P06276 29-602, species assumed): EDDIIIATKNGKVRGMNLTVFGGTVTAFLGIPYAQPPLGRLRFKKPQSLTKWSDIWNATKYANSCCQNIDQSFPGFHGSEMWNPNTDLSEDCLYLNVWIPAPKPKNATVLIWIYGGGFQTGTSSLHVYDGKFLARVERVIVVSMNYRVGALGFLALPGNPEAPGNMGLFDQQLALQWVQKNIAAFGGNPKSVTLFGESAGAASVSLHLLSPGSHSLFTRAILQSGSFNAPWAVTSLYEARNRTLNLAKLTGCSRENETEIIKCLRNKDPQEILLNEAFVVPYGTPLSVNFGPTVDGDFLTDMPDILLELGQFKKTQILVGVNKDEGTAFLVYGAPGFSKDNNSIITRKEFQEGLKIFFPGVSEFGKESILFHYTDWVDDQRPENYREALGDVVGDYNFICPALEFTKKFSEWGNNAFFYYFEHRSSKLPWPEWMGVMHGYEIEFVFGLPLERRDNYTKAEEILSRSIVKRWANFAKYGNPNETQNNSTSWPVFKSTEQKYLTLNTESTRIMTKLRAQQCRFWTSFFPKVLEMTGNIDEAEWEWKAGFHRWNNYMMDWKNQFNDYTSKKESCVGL
acetylcholinesterase (AChE), sequence (P22303 32-614, species assumed): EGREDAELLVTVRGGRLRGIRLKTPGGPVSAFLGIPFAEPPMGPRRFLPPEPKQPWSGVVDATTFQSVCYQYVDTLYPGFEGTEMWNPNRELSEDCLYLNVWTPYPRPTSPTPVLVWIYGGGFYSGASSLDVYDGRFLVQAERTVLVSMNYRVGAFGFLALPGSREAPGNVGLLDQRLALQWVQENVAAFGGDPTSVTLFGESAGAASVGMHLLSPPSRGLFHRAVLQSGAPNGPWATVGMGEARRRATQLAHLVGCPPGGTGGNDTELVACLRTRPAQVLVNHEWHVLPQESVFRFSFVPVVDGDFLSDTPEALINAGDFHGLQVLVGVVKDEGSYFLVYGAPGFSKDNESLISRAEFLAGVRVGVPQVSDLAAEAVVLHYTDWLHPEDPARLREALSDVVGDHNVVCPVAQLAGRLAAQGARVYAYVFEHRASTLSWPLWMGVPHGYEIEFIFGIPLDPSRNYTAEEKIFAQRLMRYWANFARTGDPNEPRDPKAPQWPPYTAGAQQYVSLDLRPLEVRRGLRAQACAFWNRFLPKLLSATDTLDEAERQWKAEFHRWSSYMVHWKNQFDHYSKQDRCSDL

Row | Compound | DPPH % inhibition (mean ± S.E.M) (DPPH antioxidant assay; 62.5 μg/mL) [%] | DPPH % inhibition (mean ± S.E.M) (DPPH antioxidant assay; 125 μg/mL) [%] | DPPH % inhibition (mean ± S.E.M) (DPPH antioxidant assay; 250 μg/mL) [%] | DPPH % inhibition (mean ± S.E.M) (DPPH antioxidant assay; 500 μg/mL) [%] | DPPH % inhibition (mean ± S.E.M) (DPPH antioxidant assay; 1000 μg/mL) [%] | DPPH IC50 (DPPH antioxidant assay) [µg/mL] | inhibition at 62.5 µg/mL [2, 3] [%] | ABTS percent inhibition (mean ± S.E.M) (ABTS antioxidant assay; 62.5 μg/mL) [%] | ABTS percent inhibition (mean ± S.E.M) (ABTS antioxidant assay; 125 μg/mL) [%] | ABTS percent inhibition (mean ± S.E.M) (ABTS antioxidant assay; 250 μg/mL) [%] | ABTS percent inhibition (mean ± S.E.M) (ABTS antioxidant assay; 500 μg/mL) [%] | ABTS percent inhibition (mean ± S.E.M) (ABTS antioxidant assay; 1000 μg/mL) [%] | ABTS IC50 (ABTS antioxidant assay) [µg/mL] | other results
1 | O=C(O)CCCCC(=O)O [Compound VIII, Hexanedioic acid] | 41.17±1.97 | 51.10±2.39 | 63.13±2.17 | 72.84±1.87 | 81.64±2.76 | 118 | 40.6 ± 1.06 | 41.70±1.06 | 50.02±1.11 | 62.19±0.90 | 70.10±1.20 | 80.23±1.37 | 125 | IC50 [1]: 835 µM; inhibition at 62.5 µg/mL ([1]; read-out: Percent AChE (mean ± SEM) inhibition, 62.5 μg/mL, n=3): 41.7 ± 3.01%; inhibition at 125 µg/mL ([1]; read-out: Percent AChE (mean ± SEM) inhibition, 125 μg/mL, n=3): 50.3 ± 2.1%; inhibition at 250 µg/mL ([1]; read-out: Percent AChE (mean ± SEM) inhibition, 250 μg/mL, n=3): 62.1 ± 2.41%; inhibition at 500 µg/mL ([1]; read-out: Percent AChE (mean ± SEM) inhibition, 500 μg/mL, n=3): 71.2 ± 2.37%; inhibition at 1000 µg/mL ([1]; read-out: Percent AChE (mean ± SEM) inhibition, 1000 μg/mL, n=3): 79.6 ± 2.1%; IC50 [2]: 848 µM; inhibition at 125 µg/mL [2, 3]: 50.1 ± 2.16%; inhibition at 250 µg/mL [2, 3]: 61.2 ± 2.1%; inhibition at 500 µg/mL [2, 3]: 71.3 ± 1.1%; inhibition at 1000 µg/mL [2, 3]: 78.2 ± 1.31%
2 | COc1ccc2c3c1O[C@H]1C[C@@H](O)C=C[C@@]31CCN(C)C2 [Galanthamine, reference compound] |  |  |  |  |  |  | 53.5 ± 1.69 |  |  |  |  |  |  | 
3 | O=C1O[C@H]([C@@H](O)CO)C(O)=C1O [Ascorbic acid, reference compound] | 55.05±1.54 | 65.30±2.05 | 78.89±1.34 | 87.21±0.75 | 94.88±1.63 | 35 |  | 55.51±1.09 | 64.06±1.15 | 77.64±3.06 | 83.76±1.16 | 93.41±0.73 | 35 | 
